Experimental data taken from PubChem BioAssay (NCI).
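Five concentrations, 48 hours, 96-well plates. TGI marks complete inhibition of growth.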

How the values were obtained:
Test in all cases: growth of human tumour cells (NCI), 48 h
[1] = system: MOLT-4 leukemia
[2] = system: HT29 colon
[3] = system: SN12C renal
[4] = system: CAKI-1 renal
[5] = system: SNB-75 CNS
[6] = system: SK-MEL-2 melanoma
[7] = system: SK-OV-3 ovarian
[8] = system: A498 renal
[9] = system: IGROV1 ovarian
[10] = system: DU-145 prostate
[11] = system: SK-MEL-5 melanoma
[12] = system: UACC-257 melanoma
[13] = system: LOX IMVI melanoma
[14] = system: HOP-62 NSCLC
[15] = system: T-47D breast
[16] = system: OVCAR-5 ovarian
[17] = system: SF-268 CNS
[18] = system: OVCAR-4 ovarian
[19] = system: HS 578T breast
[20] = system: A549 NSCLC
[21] = system: MDA-MB-435
[22] = system: SW-620 colon
[23] = system: SF-295 CNS
[24] = system: ACHN renal
[25] = system: UO-31 renal
[26] = system: UACC-62 melanoma
[27] = system: NCI/ADR-RES ovarian
[28] = system: SR leukemia
[29] = system: NCI-H460 lung
[30] = system: OVCAR-8 ovarian
[31] = system: COLO 205 colon
[32] = system: HCT-116 colon
[33] = system: OVCAR-3 ovarian
[34] = system: SNB-19 CNS
[35] = system: NCI-H226 lung
[36] = system: NCI-H522 lung
[37] = system: HOP-92 NSCLC
[38] = system: EKVX NSCLC
[39] = system: PC-3 prostate
[40] = system: CCRF-CEM leukemia
[41] = system: KM12 colon
[42] = system: U251 CNS
[43] = system: SK-MEL-28 melanoma
[44] = system: RXF 393 renal
[45] = system: BT-549 breast
[46] = system: K-562 leukemia
[47] = system: TK-10 renal
[48] = system: HCT-15 colon
[49] = system: MDA-N
[50] = system: M14 melanoma
[51] = system: RPMI-8226 leukemia
[52] = system: 786-0 renal
[53] = system: MCF7 breast
[54] = system: MDA-MB-231 breast
[55] = system: NCI-H23 lung
[56] = system: SF-539 CNS
[57] = system: MALME-3M melanoma

Measured: TGI

CC(C)(C)OC(=O)CN1CCNCCNCC1
> 100 µM: all assays above
